Measured values: US10562887B2, “Triazolones and tetrazolones as inhibitors of ROCK” (BRISTOL-MYERS SQUIBB COMPANY, priority 2016, dated 2020)

Target: ROCK2 (Homo sapiens (Human), UniProt O75116)
Assay: ROCK2 assay (peptide phosphorylation, LABCHIP 3000 Reader)
Type: biochemical
Conditions: 5 μM ATP, 1.5 μM peptide substrate
Summary of the method: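 Human ROCK2 reaction in 20 mM HEPES pH 7.5, 20 mM MgCl2, 0.015% Brij-35, 4 mM DTT, with 5 μM ATP and 1.5 μM FITC-labelled peptide, DMSO <2%. Stopped with EDTA; phosphorylated and unphosphorylated peptide separated by microfluidic mobility shift. IC50 from dose-response curve fit.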

Sequence of ROCK2 (O75116 whole entry, species assumed): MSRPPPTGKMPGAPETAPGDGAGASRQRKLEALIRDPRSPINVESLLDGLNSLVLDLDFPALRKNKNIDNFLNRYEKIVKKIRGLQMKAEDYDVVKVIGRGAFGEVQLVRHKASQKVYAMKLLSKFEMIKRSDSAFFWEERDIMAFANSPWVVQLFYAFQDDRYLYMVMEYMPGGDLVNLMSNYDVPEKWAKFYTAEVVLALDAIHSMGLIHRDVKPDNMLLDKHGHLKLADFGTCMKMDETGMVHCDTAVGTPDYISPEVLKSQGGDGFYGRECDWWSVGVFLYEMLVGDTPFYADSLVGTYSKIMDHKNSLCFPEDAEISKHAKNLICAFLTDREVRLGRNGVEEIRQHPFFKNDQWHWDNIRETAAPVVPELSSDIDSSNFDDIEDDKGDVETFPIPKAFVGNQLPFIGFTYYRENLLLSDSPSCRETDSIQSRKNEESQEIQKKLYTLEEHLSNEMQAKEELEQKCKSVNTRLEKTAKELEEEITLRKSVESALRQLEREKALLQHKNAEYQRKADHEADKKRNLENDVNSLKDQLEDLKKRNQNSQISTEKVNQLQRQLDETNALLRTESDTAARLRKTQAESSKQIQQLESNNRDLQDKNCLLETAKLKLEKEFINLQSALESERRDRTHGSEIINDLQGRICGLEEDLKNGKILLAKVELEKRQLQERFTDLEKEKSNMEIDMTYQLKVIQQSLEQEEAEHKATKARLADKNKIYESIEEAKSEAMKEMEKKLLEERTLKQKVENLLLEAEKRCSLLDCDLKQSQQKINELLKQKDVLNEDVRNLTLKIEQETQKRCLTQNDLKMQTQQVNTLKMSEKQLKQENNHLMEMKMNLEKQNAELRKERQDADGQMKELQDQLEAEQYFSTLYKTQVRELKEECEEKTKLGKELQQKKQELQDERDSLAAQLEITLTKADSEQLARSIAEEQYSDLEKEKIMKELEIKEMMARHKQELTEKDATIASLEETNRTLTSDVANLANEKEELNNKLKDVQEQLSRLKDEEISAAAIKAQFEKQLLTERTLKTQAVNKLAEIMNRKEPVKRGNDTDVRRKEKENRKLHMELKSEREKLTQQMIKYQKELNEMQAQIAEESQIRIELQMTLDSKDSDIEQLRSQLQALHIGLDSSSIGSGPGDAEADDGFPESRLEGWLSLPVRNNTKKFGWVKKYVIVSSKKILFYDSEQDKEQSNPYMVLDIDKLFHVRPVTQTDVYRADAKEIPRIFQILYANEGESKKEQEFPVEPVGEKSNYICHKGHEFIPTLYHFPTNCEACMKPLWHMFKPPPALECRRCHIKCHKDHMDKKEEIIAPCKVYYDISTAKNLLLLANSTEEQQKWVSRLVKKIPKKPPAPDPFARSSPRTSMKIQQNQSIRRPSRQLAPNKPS

Row | IC50 | Compound
1 | 5 to 50 nM | CC(O)c1nn(-c2ccc(-c3cn[nH]c3)cc2)c(=O)n1Cc1ccccc1 (single isomer, unassigned) [Example 141, 1-(4-(1H-pyrazol-4-yl)phenyl)-4-benzyl-3-(1-hydroxyethyl)-1H-1,2,4-triazol-5(4H)-one]
2 | 50 to 250 nM | COc1cc(-c2cn[nH]c2)ccc1-n1cnn(Cc2cc(F)ccc2F)c1=O [Example 16, 1-(2,5-difluorobenzyl)-4-(2-methoxy-4-(1H-pyrazol-4-yl)phenyl)-1H-1,2,4-triazol-5(4H)-one]
3 | 250 to 2000 nM | Cc1nn(Cc2ccccc2)c(=O)n1-c1ccc(-c2cn[nH]c2)cc1 [Example 59, 4-(4-(1H-pyrazol-4-yl)phenyl)-1-benzyl-3-methyl-1H-1,2,4-triazol-5(4H)-one]
4 | 5 to 50 nM | COc1cccc(Cn2nnn(-c3ccc(-c4cn[nH]c4)c(OC)c3)c2=O)c1 [Example 187, 1-(3-methoxy-4-(1H-pyrazol-4-yl)phenyl)-4-(3-methoxybenzyl)-1H-tetrazol-5(4H)-one]
5 | 5 to 50 nM | COc1cccc(Cn2c(CN(C)C)nn(-c3ccc(-c4cn[nH]c4)cc3)c2=O)c1 [Example 142, 1-(4-(1H-pyrazol-4-yl)phenyl)-3-((dimethylamino)methyl)-4-(3-methoxybenzyl)-1H-1,2,4-triazol-5(4H)-one]
6 | 5 to 50 nM | O=c1n(Cc2ccccc2)nnn1-c1ccc(-c2cn[nH]c2)cc1 [Example 178, 1-(4-(1H-pyrazol-4-yl)phenyl)-4-benzyl-1H-tetrazol-5(4H)-one]
7 | 50 to 250 nM | COc1cc(-c2cn[nH]c2)ccc1-n1cnn(CCc2ccccc2)c1=O [Example 14, 4-(2-methoxy-4-(1H-pyrazol-4-yl)phenyl)-1-phenethyl-1H-1,2,4-triazol-5(4H)-one]
8 | 250 to 2000 nM | CCc1cc(-n2ncn(Cc3cccc(C#N)c3)c2=O)ccc1-c1cn[nH]c1 [Example 41, 3-((1-(3-ethyl-4-(1H-pyrazol-4-yl)phenyl)-5-oxo-1H-1,2,4-triazol-4(5H)-yl)methyl)benzonitrile]
9 | 5 to 50 nM | CCc1cc(-n2ncn(Cc3cc(F)cc(OC)c3)c2=O)ccc1-c1cn[nH]c1 [Example 40, 1-(3-ethyl-4-(1H-pyrazol-4-yl)phenyl)-4-(3-fluoro-5-methoxybenzyl)-1H-1,2,4-triazol-5(4H)-one]
10 | 250 to 2000 nM | Cc1nn(Cc2cc(F)ccc2F)c(=O)n1-c1ccc(-c2cn[nH]c2)cc1 [Example 71, 4-(4-(1H-pyrazol-4-yl)phenyl)-1-(2,5-difluorobenzyl)-3-methyl-1H-1,2,4-triazol-5(4H)-one]
11 | 50 to 250 nM | Cc1nn(-c2ccc(-c3cn[nH]c3)cc2)c(=O)n1CCc1ccccc1 [Example 85, 1-(4-(1H-pyrazol-4-yl)phenyl)-3-methyl-4-phenethyl-1H-1,2,4-triazol-5(4H)-one]
12 | 5 to 50 nM | COc1cccc(Cn2nnn(-c3ccc(-c4cn[nH]c4)cc3)c2=O)c1 [Example 172, 1-(4-(1H-pyrazol-4-yl)phenyl)-4-(3-methoxybenzyl)-1H-tetrazol-5(4H)-one]
13 | 5 to 50 nM | COc1cccc(Cn2c(C)nn(-c3ccc(-c4ccnc5[nH]ccc45)cc3)c2=O)c1 [Example 165, 1-(4-(1H-pyrrolo[2,3-b]pyridin-4-yl)phenyl)-4-(3-methoxybenzyl)-3-methyl-1H-1,2,4-triazol-5(4H)-one]
14 | 250 to 2000 nM | COc1cc(-n2nnn(Cc3cccc(C#N)c3)c2=O)ccc1-c1cn[nH]c1 [Example 185, 3-((4-(3-methoxy-4-(1H-pyrazol-4-yl)phenyl)-5-oxo-4,5-dihydro-1H-tetrazol-1-yl)methyl)benzonitrile]
15 | 50 to 250 nM | COc1ccc(F)cc1Cn1c(C)nn(-c2ccc(-c3cn[nH]c3)cc2)c1=O [Example 123, 1-(4-(1H-pyrazol-4-yl)phenyl)-4-(5-fluoro-2-methoxybenzyl)-3-methyl-1H-1,2,4-triazol-5(4H)-one]
16 | 250 to 2000 nM | CC(c1ccccc1)n1ncn(-c2ccc(-c3cn[nH]c3)cc2)c1=O (centres unmarked) [Example 15, 4-(4-(1H-pyrazol-4-yl)phenyl)-1-(1-phenylethyl)-1H-1,2,4-triazol-5(4H)-one]
17 | 5 to 50 nM | COc1cc(F)cc(Cn2c(CN3CCCC3)nn(-c3ccc(-c4cn[nH]c4)cc3)c2=O)c1 [Example 150, 1-(4-(1H-pyrazol-4-yl)phenyl)-4-(3-fluoro-5-methoxybenzyl)-3-(pyrrolidin-1-ylmethyl)-1H-1,2,4-triazol-5(4H)-one]
18 | 5 to 50 nM | COc1cc(F)cc(Cn2c(CN(C)C)nn(-c3ccc(-c4cn[nH]c4)cc3)c2=O)c1 [Example 148, 1-(4-(1H-pyrazol-4-yl)phenyl)-3-((dimethylamino)methyl)-4-(3-fluoro-5-methoxybenzyl)-1H-1,2,4-triazol-5(4H)-one]
19 | 50 to 250 nM | COc1cc(-n2cnn(Cc3ccccc3)c2=O)ccc1-c1cn[nH]c1 [Example 5, 1-benzyl-4-(3-methoxy-4-(1H-pyrazol-4-yl)phenyl)-1H-1,2,4-triazol-5(4H)-one]

Row | IC50 | Compound
20 | 250 to 2000 nM | COc1cccc(Cn2c(C)nn(-c3ccc(-c4cn[nH]c4)cc3)c2=O)c1F [Example 122, 1-(4-(1H-pyrazol-4-yl)phenyl)-4-(2-fluoro-3-methoxybenzyl)-3-methyl-1H-1,2,4-triazol-5(4H)-one]
21 | < 5 nM | COc1cc(-n2ncn(C(C)c3ccccc3)c2=O)ccc1-c1cn[nH]c1 (centres unmarked) [Example 27, 1-(3-methoxy-4-(1H-pyrazol-4-yl)phenyl)-4-(1-phenylethyl)-1H-1,2,4-triazol-5(4H)-one]
22 | 5 to 50 nM | CCc1cc(-n2ncn(Cc3cccc(OC)c3)c2=O)ccc1-c1cn[nH]c1 [Example 45, 1-(3-ethyl-4-(1H-pyrazol-4-yl)phenyl)-4-(3-methoxybenzyl)-1H-1,2,4-triazol-5(4H)-one]
23 | < 5 nM | COc1cc(Cn2cnn(-c3ccc(-c4cn[nH]c4)cc3)c2=O)ccc1F [Example 50, 4-[(4-fluoro-3-methoxyphenyl)methyl]-1-[4-(1H-pyrazol-4-yl)phenyl]-4,5-dihydro-1H-1,2,4-triazol-5-one]
24 | 5 to 50 nM | COc1cccc(Cn2c(CN3CCOCC3)nn(-c3ccc(-c4cn[nH]c4)cc3)c2=O)c1 [Example 143, 1-(4-(1H-pyrazol-4-yl)phenyl)-4-(3-methoxybenzyl)-3-(morpholinomethyl)-1H-1,2,4-triazol-5(4H)-one]
25 | < 5 nM | COc1cc(F)cc(Cn2c(CO)nn(-c3ccc(-c4cn[nH]c4)cc3)c2=O)c1 [Example 144, 1-(4-(1H-pyrazol-4-yl)phenyl)-4-(3-fluoro-5-methoxybenzyl)-3-(hydroxymethyl)-1H-1,2,4-triazol-5(4H)-one]
26 | 5 to 50 nM | COc1cccc(C(C)n2c(C)nn(-c3ccc(-c4cn[nH]c4)cc3)c2=O)c1 (single isomer, unassigned) [Example 118, 1-(4-(1H-pyrazol-4-yl)phenyl)-4-(1-(3-methoxyphenyl)ethyl)-3-methyl-1H-1,2,4-triazol-5(4H)-one]
27 | < 5 nM | COc1cc(F)cc(Cn2cnn(-c3ccc(-c4cn[nH]c4)cc3)c2=O)c1 [Example 21, 1-(4-(1H-pyrazol-4-yl)phenyl)-4-(3-fluoro-5-methoxybenzyl)-1H-1,2,4-triazol-5(4H)-one]
28 | 5 to 50 nM | CC(C)(O)c1nn(-c2ccc(-c3cn[nH]c3)cc2)c(=O)n1Cc1cc(F)cc(F)c1 [Example 137, 1-(4-(1H-pyrazol-4-yl)phenyl)-4-(3,5-difluorobenzyl)-3-(2-hydroxypropan-2-yl)-1H-1,2,4-triazol-5(4H)-one]
29 | < 5 nM | COc1cc(-n2ncn(Cc3ccccc3)c2=O)ccc1-c1cn[nH]c1 [Example 23, 4-benzyl-1-(3-methoxy-4-(1H-pyrazol-4-yl)phenyl)-1H-1,2,4-triazol-5(4H)-one]
30 | 5 to 50 nM | COc1cccc(Cn2cnn(-c3ccc(-c4ccnc(N)c4)cc3)c2=O)c1 [Example 162, 1-(4-(2-aminopyridin-4-yl)phenyl)-4-(3-methoxybenzyl)-1H-1,2,4-triazol-5(4H)-one]
31 | 50 to 250 nM | COc1cc(-n2nnn(Cc3cc(F)ccc3F)c2=O)ccc1-c1cn[nH]c1 [Example 181, 1-(2,5-difluorobenzyl)-4-(3-methoxy-4-(1H-pyrazol-4-yl)phenyl)-1H-tetrazol-5(4H)-one]
32 | 250 to 2000 nM | COc1cc(-n2c(C)nn(C(C)c3ccccc3)c2=O)ccc1-c1cn[nH]c1 (centres unmarked) [Example 62, 4-(3-methoxy-4-(1H-pyrazol-4-yl)phenyl)-3-methyl-1-(1-phenylethyl)-1H-1,2,4-triazol-5(4H)-one]
33 | 250 to 2000 nM | COc1cccc(Cn2c(C)nn(-c3ccc(-c4ncnc5[nH]ccc45)cc3)c2=O)c1 [Example 164, 1-(4-(7H-pyrrolo[2,3-d]pyrimidin-4-yl)phenyl)-4-(3-methoxybenzyl)-3-methyl-1H-1,2,4-triazol-5(4H)-one]
34 | 5 to 50 nM | COc1cccc(C(C)n2c(C)nn(-c3ccc(-c4cn[nH]c4)cc3)c2=O)c1 (single isomer, unassigned) [Example 119, 1-(4-(1H-pyrazol-4-yl)phenyl)-4-(1-(3-methoxyphenyl)ethyl)-3-methyl-1H-1,2,4-triazol-5(4H)-one]
35 | 5 to 50 nM | COc1cc(-n2nc(C)n(Cc3cc(F)ccc3F)c2=O)ccc1-c1cn[nH]c1 [Example 91, 4-(2,5-difluorobenzyl)-1-(3-methoxy-4-(1H-pyrazol-4-yl)phenyl)-3-methyl-1H-1,2,4-triazol-5(4H)-one]
36 | 250 to 2000 nM | COc1cccc(Cn2nc(C)n(-c3ccc(-c4cn[nH]c4)cc3OC)c2=O)c1 [Example 64, 4-(2-methoxy-4-(1H-pyrazol-4-yl)phenyl)-1-(3-methoxybenzyl)-3-methyl-1H-1,2,4-triazol-5(4H)-one]
37 | 250 to 2000 nM | CCc1cc(-n2nc(C)n(CCc3ccccc3)c2=O)ccc1-c1cn[nH]c1 [Example 110, 1-(3-ethyl-4-(1H-pyrazol-4-yl)phenyl)-3-methyl-4-phenethyl-1H-1,2,4-triazol-5(4H)-one]
38 | 50 to 250 nM | O=c1n(Cc2cccc(F)c2)nnn1-c1ccc(-c2cn[nH]c2)cc1 [Example 173, 1-(4-(1H-pyrazol-4-yl)phenyl)-4-(3-fluorobenzyl)-1H-tetrazol-5(4H)-one]
